Patent publication US20210255184A1, “Biosensor Device and Methods” (The New Zealand Institute for Plant and Food Research …, priority 2018, published 2021)

Key:
[1] = target: T1, Or22a (Drosophila melanogaster, UniProt P81909); assay: Droplet interface bilayer ion channel recording, Or22a only; format: biochemical; settings: DIB, 10 μM ligand, holding potential +/−150, +/−100, +/−50 mV
T1 construct: his-tag; made in house; host or cells: baculovirus-infected Sf9 cells
T1 sequence (P81909 1-397): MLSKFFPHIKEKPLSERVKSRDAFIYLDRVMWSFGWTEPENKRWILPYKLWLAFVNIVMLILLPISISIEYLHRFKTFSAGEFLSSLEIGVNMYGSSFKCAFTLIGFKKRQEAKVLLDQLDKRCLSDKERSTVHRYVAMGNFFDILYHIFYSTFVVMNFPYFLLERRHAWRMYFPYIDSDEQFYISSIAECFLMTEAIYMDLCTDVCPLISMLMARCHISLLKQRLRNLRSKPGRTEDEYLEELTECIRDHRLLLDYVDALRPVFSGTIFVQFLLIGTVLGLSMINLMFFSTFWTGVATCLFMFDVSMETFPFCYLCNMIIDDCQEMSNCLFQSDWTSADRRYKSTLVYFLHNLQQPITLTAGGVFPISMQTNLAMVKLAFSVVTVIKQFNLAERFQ
Description: Bilayers were formed between two droplets formed within a PMMA chamber filled with 1 mg/ml DPhPC in undecane and AR20 silicone oil (1:1 ratio). The first step in this process was to deposit a 50 nl droplet onto the stationary silver electrode positioned at the base of the well; this droplet consisted of an aqueous solution containing 300 mM NaCl, 10 mM HEPES (pH 7.4), containing the odorant receptor proteins in proteoliposomes (at a 1:20 dilution from the proteoliposome preparation), […] The second droplet was mounted onto a second silver electrode which was held in the oil and lipid mixture using a YOU-3 manipulator (Narishige, Japan). […] Once the droplets were in contact a bilayer formed spontaneously within 1 minute (as determined by visual assessment and an increase in the bilayer capacitance as measured with a capacitance voltage protocol using the Pico2 amplifier). Insertion of an active channel was determined by a change in current while clamping the voltage at 50 mV. […]
Currents were recorded with a Pico2 or an eONE-HS amplifier (Tecella, USA and Elements, Italy, respectively) with built-in digitizers, operating in gap-free acquisition mode at a sampling frequency of 20 kHz, and using a 0.8 or 1.5 kHz low pass filter. […]
Data were analysed using ANA (Dr Pusch, Genoa), EDR (Elements, Italy) and WinWCP (Dr Dempster, University of Strathclyde). […]

[2] = target: T1, Or22a; assay: GFET sensor, Or22a liposomes; format: biochemical; settings: Table 4, GFET
Excerpt: The GFETs used in this study were fabricated from a predeposited graphene film on 300 nm SiO2 coated Si substrate from ACS Suppliers, USA. The FETs consist of a channel with dimensions of 100 μm width and […]. The key steps involved in fabricating the GFET on a Si/SiO2 substrate is schematically illustrated in FIG. 12. The source and drain electrodes were defined by photolithography and formed by successive deposition of Cr and Au. Both the drain and source electrodes were then encapsulated using AZ1518 photoresist and a channel with dimensions of 100 μm width and 10 μm length was left open to the environment for gating and functionalisation.
The OR liposomes were functionalised onto the graphene surface via a non-covalent route using PBASE as the molecular linker as shown in FIG. 13. The OR liposomes were diluted at 1:10 ratio with 1×PBS (pH7.4). The cleaned GFETs were immersed in 1 mM PBASE solution in methanol for 1 hour. […]
Electrical sensor measurements of OR liposome functionalised GFETs were carried out using top liquid gate morphology as shown in the schematic in FIG. 15 (a). […] The transfer characteristics of the different graphene FETs (FIG. 15 (b) to (g)) were measured at Vds=1 mV while the liquid gate voltage Vlg was swept from −0.5 V to 1 V with an interval of 20 mV. […]

**Q.** What does the source list for `CCCCCC(=O)OC` [methyl hexanoate]?
**A.** ion channel activity [1]: No ion channel activity; Detection Range [2]: 10^−12 to 10^−8 M; EC50 [2]: 0.0121 nM
